row,Structure (SMILES),melting point [°C]
1,Fc1ccc(CBr)c(Br)c1,51 to 53
2,Nc1cc(Br)ccc1-n1cncn1,114 to 116
3,NC(=NO)c1cccc(NC(=O)CN2CCOCC2)c1,99 to 101
4,O=S(=O)(CCCl)c1cc(Cl)ccc1Cl,80 to 82
5,O=C(O)CC1OCCc2ccsc21 (configuration not stated),109 to 111
6,Clc1ccc(Cl)c(OCCBr)c1,57 to 59
7,CC(=O)Nc1ccc(C)c(S(=O)(=O)Cl)c1,95 to 97
8,Nc1ccc(-c2n[nH]c(=O)[nH]2)cc1,333 to 335
9,CCc1nc(C(=O)O)co1,101 to 103
10,O=c1[nH]nc2n1CCNC2,179 to 181
11,Cc1c(NC(=O)CSc2nnc(N)s2)c(=O)n(-c2ccccc2)n1C,142 to 144
12,Cc1ccc2c(c1)C(=O)N(CCC(=O)O)C2=O,163 to 165
13,N#Cc1cnccc1N,170 to 172
14,Cc1ccc(-c2nn(-c3ccccc3)cc2C=CC(=O)O)cc1,220 to 222
15,N#Cc1ccc(Oc2cccc(N)c2)nc1,112 to 114
16,Cc1nn(Cc2ccccc2)c(C)c1C(=O)O,137 to 139
17,CCOc1cc(CC#N)ccc1OCC(F)(F)F,40 to 42
18,O=[N+]([O-])c1ccc2nc(Br)sc2c1,201 to 203
19,Sc1nnc(-c2ccc(Cl)cc2)o1,88 to 90
20,O=C(CCl)NCc1ccc(F)cc1C(F)(F)F,95 to 97
21,O=C(CBr)c1ccc(S(=O)(=O)N2CCOCC2)cc1,148 to 150
22,CN(C)C(=O)Sc1cnc2c(c1)c(=O)n(C)c(=O)n2C,170 to 172
23,CCC(C)C(NC1=NS(=O)(=O)c2ccccc21)C(=O)O (configuration not stated),203 to 205
24,N#CCNC(=O)CCl,88 to 90

row,Structure (SMILES),melting point [°C]
1,CCCCCCCOc1ccc(C=O)cc1OCC,43 to 47
2,Nc1cccc(C2SCCCS2)c1,140 to 142
3,CSc1nccn1-c1ccc(C(=O)O)cc1,296 to 298
4,CC(=O)c1ccc(NS(=O)(=O)c2ccc(Cl)cc2)cc1,132 to 134
5,NS(=O)(=O)C=Cc1cccc(Br)c1,153 to 155
6,Cc1nn(C)c2ncc(CCl)cc12,171 to 173
7,O=S(=O)(c1ccc2c(c1)CCN2)N1CCOCC1,173 to 177
8,Cc1c(-c2cccnc2)noc1N,177 to 179
9,CCOc1ccc(S(N)(=O)=O)c2ccccc12,168 to 170
10,Nc1ccc(Cl)c(S(=O)(=O)N2CCCC2)c1,116 to 118
11,N#Cc1ccnc(-n2cncn2)c1,149 to 151
12,CSc1ccncc1N,78 to 80
13,CC(C)(C)c1nn(-c2ccccc2)cc1C(=O)O,212 to 214
14,CC(=O)Nc1ccc(Oc2nc3ccccc3o2)cc1,164 to 166
15,O=C(Nc1cccc(-c2nnnn2C2CC2)c1)OCC(F)(F)F,124 to 126
16,O=S(=O)(c1ccccc1)n1c(I)cc2cccnc21,109 to 111
17,CCC(=O)Nc1cc2ccccc2cc1C(=O)O,234 to 236
18,O=C(O)C=Cc1ccccc1OC(F)(F)F,174 to 176
19,O=Cc1cn2cccnc2n1,189 to 191
20,N#CCc1nc(C23CC4CC(CC(C4)C2)C3)cs1,57 to 59
21,Cc1cc(S(N)(=O)=O)cc(NC(=O)CCl)c1C,210 to 212
22,Cc1ccccc1-n1c(Cl)nc2ccccc2c1=O,298 to 300
23,CCCn1nc(C(=O)O)ccc1=O,132 to 134
24,O=C(O)CSCC(=O)Nc1ccc(F)cc1,125 to 127

row,Structure (SMILES),melting point [°C]
1,CS(=O)(=O)c1ccc(N)cn1,171 to 173
2,Cc1ccc(S(=O)(=O)N2CCC(=O)CC2)cc1,125 to 127
3,O=C(O)CCOc1cc(Cl)ccc1Cl,145 to 147
4,Cc1ccc(C(O)CN)cc1 (configuration not stated),70 to 72
5,COC(=O)c1cc(F)c(Br)c([N+](=O)[O-])c1,66 to 68
6,ClCCc1nnnn1-c1ccccc1,45 to 47
7,CC(C)(C)Cc1nc(-c2cccc(C(=O)O)c2)no1,160 to 162
8,CCc1ccc(-n2nc(C(=O)O)c3c2CCC3)cc1,183 to 185
9,Cc1ccc(-c2ccncc2)cc1N,202 to 204
10,O=C(CCCl)Nc1ccccc1[N+](=O)[O-],86 to 88
11,CCOc1ccc(S(=O)(=O)NCC(=O)O)cc1,139 to 141
12,OCc1ccc(F)cc1Br,69 to 71
13,O=C1CC=NN1c1ccc(F)cc1,121 to 123
14,Nc1cc(-c2cc(F)cc(F)c2)no1,114 to 116
15,CC(=O)c1sc(C(C)(C)C)nc1C,66 to 68
16,O=C(O)c1cc2c(cc1O)CCCC2,170 to 172
17,O=C(O)CC1CCOc2ccccc21 (configuration not stated),89 to 91
18,O=C(O)CCCOc1cccc(Br)c1,50 to 52
19,CCOc1ccc(Br)cc1S(=O)(=O)Nc1ccc(N)cc1,77 to 79
20,O=C1CCc2cc(S(=O)(=O)Cl)c(F)cc2N1,207 to 209
21,OCC1CSCCN1 (configuration not stated),84 to 86
22,CC1CCCCC1NC(=O)NC(=O)CCl (configuration not stated),126 to 128
23,Cc1nn(C)cc1C(=O)O,190 to 192
24,COCCOc1cc2c(cc1C=O)OCO2,84 to 86

row,Structure (SMILES),melting point [°C]
1,Cc1cc(C(=O)CCl)c(C)n1-c1cc(Cl)cc(Cl)c1,113 to 115
2,O=[N+]([O-])c1ccccc1-c1cn[nH]c1,105 to 107
3,COCCNC(=O)C1CCNCC1,158 to 160
4,COC(=O)c1cc2ccc(OCc3ccccc3)cc2[nH]1,136 to 138
5,CC(C)CC(=O)N1Cc2ccccc2CC1C(=O)O (configuration not stated),169 to 171
6,O=Cc1ccccc1OCc1ccncc1,65 to 67
7,COc1c(F)c(F)c(N)c(F)c1F,78 to 80
8,NC(=NO)c1cc2ccccc2o1,183 to 185
9,COc1cc(C=C2CCc3c2nc2ccccc2c3C(=O)O)cc(OC)c1OC,246 to 248
10,NC(=O)Cn1ncc(Cl)c(Cl)c1=O,245 to 247
11,CCOC(=O)c1oc2ccc(Br)cc2c1CBr,132 to 134
12,CC(C)(C)NS(=O)(=O)c1ccc(Cl)c(C(=O)O)c1,179 to 181
13,CN1CCC(C(=O)O)c2ccccc21 (configuration not stated),99 to 101
14,O=C(O)CN1Cc2ccccc2C1,209 to 211
15,CCc1sc(C(=O)O)cc1Br,155 to 157
16,Nc1cc(C(=O)O)nc2ccccc12,276 to 278
17,Cc1n[nH]c(C)c1-c1ccccc1N,162 to 164
18,COc1cc(C(=O)N2CCCC(C(=O)O)C2)cc(OC)c1OC (configuration not stated),189 to 191
19,Cc1cccc2c(CCN)c[nH]c12,125 to 127
20,CCOC(=O)C(=O)c1c(-c2ccc(C)cc2)nc2ccccn12,116 to 118
21,O=C(O)CCn1cc(Cl)cn1,91 to 93
22,COC(=O)c1ccc(-c2csc(N)n2)cc1,239 to 241
23,CN(Cc1ccccc1N)C(=O)c1cc2ccccc2o1,109 to 111
24,COc1ccc(Sc2nsc(N)n2)cc1,138 to 140

row,Structure (SMILES),melting point [°C]
1,FC(F)(F)c1cnc(-n2cccn2)c(Cl)c1,50 to 52
2,O=C(O)CCc1c(-c2ccc(F)cc2)[nH]c2ccccc12,114 to 121
3,Cc1cc(S(=O)(=O)Cl)ccc1F,36 to 38
4,Nc1nncc(-c2ccccc2F)n1,204 to 206
5,Nc1nc(CN2CCN(c3ncccn3)CC2)cs1,158 to 160
6,Cc1[nH]c2ccnn2c(=O)c1CC(=O)O,293 to 295
7,Cc1cc(C(=O)O)cc(S(=O)(=O)N2CCC(C)CC2)c1C,176 to 178
8,CS(=O)(=O)NCCBr,44 to 46
9,Cc1nn(C(C)(C)C)c(C)c1C(=O)O,158 to 160
10,Cc1csc(-c2cccc(N)c2)n1,82 to 84
11,CCCCc1ccc(Nc2nnc(S)s2)cc1,124 to 126
12,COC(=O)c1cc(F)cc(OC)c1N,66 to 68
13,CC1CCC(C)N1c1cn[nH]c1 (configuration not stated),65 to 67
14,COC(=O)c1cccc(S(=O)(=O)Cl)c1,51 to 53
15,O=C(Nc1sc2c(c1C(=O)O)CCCC2)c1cccnc1,239 to 241
16,COc1cc(Br)cc(OC)c1O,99 to 101
17,O=Cc1cccc(OCc2cccc(C(=O)O)c2)c1,122 to 124
18,Nc1nc(CCl)nc2ccccc12,163 to 165
19,O=C(O)c1ccccc1OCc1ccccc1Cl,119 to 121
20,COc1c(OC(F)F)ccc(C=O)c1[N+](=O)[O-],61 to 63
21,O=C(O)c1c[nH]nc1-c1cccc(Cl)c1,251 to 253
22,C=CC(=O)Nc1ccc(OC)c(OC)c1,102 to 104
23,Cc1c(C(=O)O)nnn1-c1cccc2ncccc12,209 to 211
24,CC1CN(c2ccc(N)cc2C(F)(F)F)CC(C)O1 (configuration not stated),122 to 124

row,Structure (SMILES),melting point [°C]
1,CN1CCN(C(=O)c2ccccc2C(=O)O)CC1,274 to 276
2,NC(=S)CC1CC1,68 to 70
3,Sc1n[nH]c(C2CC2)n1,235 to 237
4,O=C(O)c1ccc(=O)n(Cc2ccccc2Cl)c1,182 to 184
5,CC(C)CC1NC(C(=O)O)CS1 (configuration not stated),159 to 161
6,O=C(O)CSc1ccc(Br)cc1,117 to 119
7,N#Cc1nc(-c2ccccc2)oc1NN,209 to 211
8,CC(C)CC(=O)NC(C(=O)O)C(C)C (configuration not stated),186 to 188
9,CCS(=O)(=O)c1ccc2c(c1)N(CC(=O)O)CC(=O)O2,188 to 190
10,CC(Sc1ccccn1)C(=O)O (configuration not stated),70 to 72
11,Cc1cc(SCC(=O)O)nc2ccccc12,117 to 119
12,COc1ccc(S(=O)(=O)N2CCC(=O)CC2)cc1,126 to 128
13,CCCCc1ccnc(N)n1,99 to 101
14,Cc1ccc(-c2ccsc2C(=O)NN)cc1,270 to 273
15,CN(C1CCCCC1)S(=O)(=O)c1cccc(C(=O)O)c1,145 to 147
16,OCc1ccc2[nH]nnc2c1,146 to 148
17,CCc1sc(=O)[nH]c1-c1ccccc1,136 to 138
18,Cc1nn(-c2ccc(Cl)c(Cl)c2)c(C)c1CC(=O)O,140 to 142
19,Fc1ccc(-c2nnc(S)n2CCN2CCOCC2)cc1,212 to 214
20,OC1CCCCc2ccccc21 (configuration not stated),101 to 103
21,COc1ccc(NC(=O)CC#N)cc1Cl,110 to 112
22,CC1NCCNC1=O (configuration not stated),65 to 67

# Reference: a melting point compilation (Tetko et al.)
